Test results published in BigSolDB 2.1.

Nc1cc(Cl)ccc1[N+](=O)[O-]
solubility (mole fraction)
Conditions | 283.15 K | 288.15 K | 293.15 K | 298.15 K | 303.15 K | 308.15 K | 313.15 K | 318.15 K | 323.15 K
in 2-butanone | 0.141 | 0.149 | 0.164 | 0.173 | 0.187 | 0.203 | 0.218 | 0.234 | 0.252
in acetone | 0.126 | 0.141 | 0.152 | 0.165 | 0.183 | 0.2 | 0.219 | 0.242 | 0.262
in acetonitrile | 0.0303 | 0.036 | 0.0428 | 0.0519 | 0.0633 | 0.0751 | 0.0945 | 0.11 | 0.135
in ethanol | 0.0164 | 0.0184 | 0.0215 | 0.0243 | 0.0273 | 0.0317 | 0.0373 | 0.0441 | 0.0497
in ethyl acetate | 0.0983 | 0.107 | 0.117 | 0.133 | 0.144 | 0.158 | 0.174 | 0.193 | 0.24
in isobutanol | 0.0116 | 0.0129 | 0.0154 | 0.0185 | 0.0219 | 0.0259 | 0.0308 | 0.0361 | 0.0444
in isopropanol | 0.0146 | 0.017 | 0.0197 | 0.0232 | 0.0267 | 0.0321 | 0.0372 | 0.0451 | 0.0539
in methanol | 0.0104 | 0.0122 | 0.0142 | 0.0164 | 0.019 | 0.0235 | 0.027 | 0.0326 | 0.0374
in methyl acetate | 0.101 | 0.108 | 0.12 | 0.133 | 0.147 | 0.162 | 0.178 | 0.192 | 0.214
in n-butanol | 0.0182 | 0.0209 | 0.0246 | 0.0283 | 0.0311 | 0.0358 | 0.0426 | 0.0481 | 0.0553
in n-propanol | 0.0161 | 0.0184 | 0.0214 | 0.0246 | 0.0284 | 0.0315 | 0.0373 | 0.0452 | 0.0517
in water | 5.45e-06 | 9.54e-06 | 1.22e-05 | 1.77e-05 | 2.18e-05 | 2.73e-05 | 3.53e-05 | 4.25e-05 | 4.78e-05
